Eleven compounds from ChEMBL document CHEMBL1201862, “PubChem BioAssay data set” (2004) can be followed below.

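1) Cells in 96-well plates. 2) Compound, 48 h, 5 concentrations. 3) Linear interpolation between surrounding doses. 4) Unreached endpoint = highest concentration. GI50 = concentration required for 50% inhibition of growth.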 Calls of active or inactive are those of the source. No stated cut-off is given here; in the data, active = GI50 up to about 1.1 µM and inactive = higher.

Among the test systems are KM12; HOP-62; SF-539; MOLT-4; LOX IMVI; MDA-N; MDA-MB-435; MCF7; OVCAR-8; ACHN; SN12C; Hs-578T; EKVX; 786-0; SF-295; A549; COLO 205; HL-60; NCI-H522; SNB-75.
What all share (experiment): NCI tumour cell line growth inhibition, 48 h

As for `COc1cc(C(CN)N(C)C)cc(OC)c1OC` (stereo not drawn), the GI50 in the experiment with KM12, in the experiment on HOP-62, in the experiment with SF-539, in the experiment with MOLT-4, in the experiment with LOX IMVI and in the experiment on MDA-N was > 100 µM (inactive) throughout. The GI50 with MDA-MB-435 was > 100 µM (inactive); with MCF7 it was > 100 µM (inactive); with OVCAR-8 it was > 100 µM (inactive); in the experiment on ACHN, > 100 µM (inactive); with SN12C, 49.2 µM (inactive); with Hs-578T it was > 100 µM (inactive). For the same compound, the GI50 in the experiment with EKVX was > 100 µM (inactive); in the experiment with 786-0, > 100 µM (inactive); with SF-295, > 100 µM (inactive); with A549 it was > 100 µM (inactive); in the experiment with COLO 205, 77.8 µM (inactive); in the experiment on HL-60, > 100 µM (inactive). Also, the GI50 with NCI-H522 was > 100 µM (inactive).

`O=[N+]([O-])/C(C(Cl)=C(Cl)Cl)=C(\SCc1ccccc1)N1CCCCC1`: the GI50 was 28 µM (inactive) in the experiment on KM12; 38.4 µM (inactive) in the experiment with HOP-62; 21.5 µM (inactive) in the experiment with SF-539; 10.7 µM (inactive) in the experiment with MOLT-4; 15.9 µM (inactive) with LOX IMVI; 17.5 µM (inactive) in the experiment with MDA-N. In addition, the GI50 was 16.3 µM (inactive) in the experiment on MDA-MB-435; 12.6 µM (inactive) in the experiment on MCF7; 20.6 µM (inactive) with OVCAR-8; 17.4 µM (inactive) in the experiment with ACHN; 20.2 µM (inactive) with SN12C; 27.5 µM (inactive) in the experiment with Hs-578T. Further, the GI50 in the experiment with EKVX is 70.3 µM (inactive); with 786-0, 15.9 µM (inactive); in the experiment on SF-295, 38.5 µM (inactive); in the experiment on A549, 30.9 µM (inactive); in the experiment with COLO 205, 16.4 µM (inactive); in the experiment on HL-60 it was 9.73 µM (inactive). The GI50 with NCI-H522 is 14.7 µM (inactive).

`O=C1c2cc3c(cc2CC12Cc1cc4c(cc1C2=O)CCC4)CCCC3` (stereo not drawn): the GI50 with HOP-62, in the experiment with SNB-75, in the experiment on SF-539, with MOLT-4, in the experiment with LOX IMVI and in the experiment on MDA-N was > 100 µM (inactive) each time. Moreover, the GI50 is > 100 µM (inactive) in the experiment on MDA-MB-435; > 100 µM (inactive) in the experiment with MCF7; > 100 µM (inactive) in the experiment on OVCAR-8; > 100 µM (inactive) in the experiment on ACHN; > 100 µM (inactive) in the experiment with Hs-578T; 95.1 µM (inactive) in the experiment with EKVX. Further, the GI50 is 76 µM (inactive) in the experiment with 786-0; > 100 µM (inactive) in the experiment on SF-295; > 100 µM (inactive) in the experiment on A549; > 100 µM (inactive) with HL-60; > 100 µM (inactive) in the experiment on NCI-H522.

For the compound `O=[N+]([O-])c1ccc(Cl)cc1-n1nc(-c2ccccc2)cc1-c1ccccc1`, the GI50 is > 100 µM (inactive) in the experiment on KM12; > 10 µM (inactive) in the experiment with HOP-62; > 100 µM (inactive) in the experiment with SNB-75; 50.5 µM (inactive) in the experiment with SF-539; > 100 µM (inactive) with MOLT-4; > 100 µM (inactive) with MDA-N. The GI50 in the experiment on MDA-MB-435 is > 100 µM (inactive); in the experiment on MCF7, 95.1 µM (inactive); with OVCAR-8, > 100 µM (inactive); in the experiment with ACHN, > 100 µM (inactive); in the experiment on SN12C, > 100 µM (inactive); with Hs-578T, 81.3 µM (inactive). Further, the GI50 with EKVX, in the experiment with 786-0, in the experiment with SF-295, with A549, in the experiment with COLO 205 and in the experiment on HL-60 was > 100 µM (inactive) each time. For the same compound, in the experiment with NCI-H522, the GI50 is > 100 µM (inactive).

`Cc1ccc(NC(=O)c2cc(S(=O)(=O)Nc3n[nH]c(=O)[nH]3)c(SSc3cc(Cl)c(C(=O)Nc4ccc(C)cc4)cc3S(=O)(=O)Nc3n[nH]c(=O)[nH]3)cc2Cl)cc1`: the GI50 in the experiment on KM12, in the experiment with HOP-62, in the experiment with SNB-75, in the experiment with MOLT-4, in the experiment on LOX IMVI and in the experiment on MDA-N was > 100 µM (inactive) in each case. For the same compound, the GI50 with MDA-MB-435, in the experiment on MCF7, in the experiment with OVCAR-8, in the experiment on ACHN, with SN12C and in the experiment with Hs-578T was > 100 µM (inactive) throughout. The GI50 in the experiment on EKVX, in the experiment on 786-0, in the experiment with SF-295, in the experiment with A549, in the experiment on COLO 205 and with HL-60 was > 100 µM (inactive) each time. The GI50 with NCI-H522 is > 100 µM (inactive).

As for `COC(=O)c1c(O)ccc2c1c1cc3ccccc3c(O)c1n2CCc1ccc(OC)c(OC)c1`, the GI50 with KM12 was 51.3 µM (inactive); in the experiment on HOP-62 it was > 100 µM (inactive); with SF-539, 98.9 µM (inactive); with MOLT-4, 89.3 µM (inactive); in the experiment on MDA-N, 57.7 µM (inactive); in the experiment on MDA-MB-435, 53.7 µM (inactive). The GI50 with MCF7 was 65.8 µM (inactive); with OVCAR-8, 63.4 µM (inactive); in the experiment on ACHN it was 83.4 µM (inactive); in the experiment with SN12C it was > 100 µM (inactive); in the experiment on Hs-578T it was 31.4 µM (inactive); in the experiment with EKVX it was > 100 µM (inactive). Moreover, the GI50 in the experiment on 786-0 was 91.8 µM (inactive); with SF-295 it was 96.8 µM (inactive); with A549 it was 43.2 µM (inactive); with COLO 205, 15.5 µM (inactive); in the experiment on HL-60, 65.9 µM (inactive); with NCI-H522, 21.1 µM (inactive).

For the compound `CC1(CCCO)CCCCCCCCCC(C)(CCCO)C1=O` (stereo not drawn), the GI50 with KM12, with HOP-62, with SNB-75, with MOLT-4, with LOX IMVI and in the experiment with MDA-N was > 100 µM (inactive) each time. Besides, the GI50 in the experiment with MDA-MB-435, in the experiment on MCF7, in the experiment on OVCAR-8, with ACHN, in the experiment with SN12C and in the experiment with Hs-578T was > 100 µM (inactive) in each case. The GI50 is > 100 µM (inactive) in the experiment on EKVX; > 100 µM (inactive) in the experiment with 786-0; > 100 µM (inactive) in the experiment with SF-295; 87.3 µM (inactive) with A549; > 100 µM (inactive) in the experiment with COLO 205; 40 µM (inactive) in the experiment on HL-60. The GI50 in the experiment on NCI-H522 was > 100 µM (inactive).

As for `COc1ccc2c(c1O)[C@@]13C=C(O)C(=O)C=C1[C@@H](C2)N(C)CC3`, the GI50 is 52.1 µM (inactive) with KM12; 49.4 µM (inactive) with HOP-62; 54 µM (inactive) in the experiment on SNB-75; 36.1 µM (inactive) in the experiment with MOLT-4; 31.6 µM (inactive) in the experiment on LOX IMVI; 47 µM (inactive) in the experiment on MDA-N. The GI50 was 40.6 µM (inactive) in the experiment on MDA-MB-435; 65.2 µM (inactive) in the experiment on MCF7; 51.9 µM (inactive) in the experiment on OVCAR-8; 43.6 µM (inactive) in the experiment with ACHN; 50 µM (inactive) with SN12C; 59.3 µM (inactive) with Hs-578T. The GI50 in the experiment with EKVX is > 100 µM (inactive); in the experiment on 786-0, 75 µM (inactive); in the experiment with SF-295, > 100 µM (inactive); with A549, > 100 µM (inactive); with COLO 205 it was > 100 µM (inactive); in the experiment with HL-60 it was 46.1 µM (inactive). The GI50 in the experiment on NCI-H522 was 28.8 µM (inactive).

In the case of `CCn1c2nc(=O)n(CCCCCCCCSC(c3ccccc3)(c3ccccc3)c3ccccc3)c(=O)c-2nc2ccccc21`, the GI50 in the experiment on KM12 was 9.91 µM (inactive); in the experiment with HOP-62 it was 27.5 µM (inactive); in the experiment with SF-539, 64.3 µM (inactive); in the experiment with MOLT-4, 2.9 µM (inactive); in the experiment with LOX IMVI, 53.5 µM (inactive); in the experiment with MDA-N, 7.14 µM (inactive). Further, the GI50 in the experiment on MDA-MB-435 was 6.12 µM (inactive); in the experiment on MCF7, 6.19 µM (inactive); with OVCAR-8, 43.6 µM (inactive); with ACHN, 3.21 µM (inactive); in the experiment on Hs-578T it was 3.33 µM (inactive); in the experiment with EKVX, 7.83 µM (inactive). Also, the GI50 in the experiment with 786-0 was 14.6 µM (inactive); in the experiment with SF-295 it was 20.4 µM (inactive); in the experiment with HL-60, 0.181 µM (active); in the experiment on NCI-H522, 3.13 µM (inactive).

As to `O=C1C=C2S[C@H]3C[C@]2(C=C1Br)C1=C(N3)C(=O)c2[nH]cc3c2C1=NCC3` [(+)-DISCORHABDIN B], the GI50 in the experiment on KM12 is 1.6 µM (inactive); with SNB-75, 1.55 µM (inactive); in the experiment on SF-539, 1.63 µM (inactive); in the experiment on MOLT-4, 0.148 µM (active); in the experiment on LOX IMVI it was 0.347 µM (active); with MDA-N it was 0.165 µM (active). In addition, the GI50 in the experiment with MDA-MB-435 is 0.158 µM (active); in the experiment on MCF7, 0.52 µM (active); with OVCAR-8, 0.541 µM (active); with ACHN it was 0.632 µM (active); in the experiment on SN12C, 1.23 µM (inactive); with Hs-578T it was 1.5 µM (inactive). Also, the GI50 in the experiment with EKVX was 1.68 µM (inactive); in the experiment on 786-0 it was 0.883 µM (active); with SF-295, 1.5 µM (inactive); in the experiment with A549 it was 2.47 µM (inactive); in the experiment with COLO 205 it was 0.0721 µM (active); in the experiment on HL-60, 0.0853 µM (active). Moreover, the GI50 in the experiment on NCI-H522 was 0.273 µM (active).

For `CC(C)CN(CC#N)CC(C)C`, the GI50 with KM12, with HOP-62, in the experiment with SNB-75, in the experiment with MOLT-4, with LOX IMVI and in the experiment on MDA-N was > 100 µM (inactive) throughout. The GI50 with MDA-MB-435, with MCF7, in the experiment on OVCAR-8, in the experiment on ACHN, with SN12C and in the experiment on Hs-578T was > 100 µM (inactive) in each case. Besides, the GI50 with EKVX, in the experiment on 786-0, with SF-295, in the experiment with A549, in the experiment with COLO 205 and in the experiment with HL-60 was > 100 µM (inactive) in each case. The GI50 with NCI-H522 was > 100 µM (inactive).
